Literature values in US10251814B2, “Cefuroxime safety delivery system” (CIS PHARMA AG, priority 2011, dated 2019).
Read-outs that look alike come from different tables or passages of the source.

Experiments:
endophthalmitis = conditions: 16,603 patients; cefuroxime 1 mg in 0.1 ml normal saline intracameral at end of surgery; levofloxacin drops prior and subsequent to surgery
[1] = in 48 hours, at room temperature
[2] = system: human corneal endothelial cells; conditions: 24-hour exposure
[3] = 1 mg in 0.1 ml of aqueous solution

hydrolysis rate in aqueous solution [1]: about 10%
mean intracameral concentration (after one hour, intracameral administration of 1 mg in 0.1 ml): 0.756 mg/mL
mean intracameral concentration (shortly after intracameral administration of 1 mg in 0.1 ml): 2.742 mg/mL
SMILES: CO/N=C(\C(=O)N[C@@H]1C(=O)N2C(C(=O)O)=C(COC(N)=O)CS[C@H]12)c1ccco1 [cefuroxime]
reduction of the risk for endophthalmitis (endophthalmitis): nearly five fold
concentration resulting in a significant reduction in cell viability [2]: exceeding 2.75 mg/ml
safety of intracameral administration [3]: has been established
